In article PMC11773759, “Bioactivity-guided isolation and molecular modeling of the anti-inflammatory constituents from the leaves of Duranta erecta Linn” (BMC Complementary Medicine and Therapies, 2025):

Experiments:
[1] = tested on: carrageenan-induced rat paw edema; set-up: method as in PMID 12241987; details: cited from earlier work
5-LOX enzyme = assay: 5-Lipoxygenase (5-LOX) inhibitory assay (colorimetric LOX inhibitor screening kit); format: biochemical; details: isolated compounds
Experimental: The LOX inhibitor screening assay was carried out colorimetrically, as per the manufacturer’s instructions (Cayman Chemical Company, MI, USA). […] To initiate the enzymatic reaction, introduce 10 µL of 1 mM arachidonic acid and shake the plate for 5 min.
To halt the enzymatic process and promote colour formation, 100 µL of chromogen from the test kit was used. The plate was then shaken for a further 5 min before the absorbance at 490 nm was measured with a microplate reader.

ovine COX-1 = target: T1, ovine COX-1 (Ovis aries, UniProt P05979); assay: COX-1 inhibition assay (colorimetric COX (ovine) inhibitor screening kit)
T1 sequence (P05979 25-600): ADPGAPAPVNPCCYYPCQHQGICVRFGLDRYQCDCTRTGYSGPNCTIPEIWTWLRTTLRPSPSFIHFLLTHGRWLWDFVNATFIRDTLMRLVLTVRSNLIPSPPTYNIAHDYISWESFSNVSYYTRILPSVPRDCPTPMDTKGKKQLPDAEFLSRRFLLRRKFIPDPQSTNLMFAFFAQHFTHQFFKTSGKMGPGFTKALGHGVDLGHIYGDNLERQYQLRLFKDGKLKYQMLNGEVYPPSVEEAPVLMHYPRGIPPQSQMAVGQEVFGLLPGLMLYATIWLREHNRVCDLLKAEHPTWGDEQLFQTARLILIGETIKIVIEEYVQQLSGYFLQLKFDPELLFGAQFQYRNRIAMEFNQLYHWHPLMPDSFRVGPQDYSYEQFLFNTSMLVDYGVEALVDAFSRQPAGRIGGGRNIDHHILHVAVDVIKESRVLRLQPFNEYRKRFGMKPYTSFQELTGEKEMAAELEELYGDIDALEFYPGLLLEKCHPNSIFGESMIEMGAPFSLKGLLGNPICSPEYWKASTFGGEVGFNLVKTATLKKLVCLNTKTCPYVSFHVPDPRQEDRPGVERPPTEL
Experimental: COX-1 and 2 inhibition assay kits (K548-100 and K547-100) were purchased from Biovision Inc., California, USA. […] The absorbances were measured using a Tecan microplate reader (Infinite F50, Switzerland). […] Sigma Chemical Company (CA, USA) supplied the reagents utilized in biological experiments.
To prepare a stock concentration of 5 mg/mL, the extract and its constituent fractions were dissolved in 100% DMSO. In triplicate, samples were serially diluted from 0.1 µg/mL to 100 µg/mL. The inhibitory activity of COX was determined using a colorimetric approach, as previously described [13], and using the Cayman colorimetric COX (ovine) inhibitor screening test kit (Cayman Chemical Company, MI, USA) according to the manufacturer’s instructions. […] After initiating the reaction with 10 µL of 10 mM arachidonic acid, the mixture was incubated at 37 °C for another 2 min. To stop the reaction, 50 µL of 1 N HCl and saturated stannous chloride were added. The assays were run using 100 U of ovine COX-1 and COX-2. […] Results were presented as IC50 (µg/mL) [13].

soybean 5-LOX = tested on: soybean 5-LOX; set-up: method as in doi:10.1007/s00044-016-1677-9; details: in vitro; cited from earlier work
lipoxygenase = tested on: lipoxygenase; set-up: method as in PMID 26134247; details: dose of 0.5 mM; cited from earlier work

## COC(=O)C1=COC(OC2OC(CO)C(O)C(O)C2O)C2C1(O)CC(O)C2(C)O (stereo not shown) [Compound 2, lamiide]
[1]
  anti-inflammatory effect in carrageenan-induced rat paw edema: anti-inflammatory properties
5-LOX enzyme
  IC50: 4.9 ± 0.4 µM
Ovine COX-1
  IC50: 8.5 ± 0.2 µM
Soybean 5-LOX
  suppression of soybean 5-LOX: suppresses
lipoxygenase
  inhibition of lipoxygenase: moderate inhibition

## COC(=O)C1=COC(OC2OC(CO)C(O)C(O)C2O)C2C1(O)CC(OC(=O)C=Cc1ccc(OC)c(O)c1)C2(C)O (stereo not shown) [Compound 1, duranterectoside A]
5-LOX enzyme
  IC50: 2.6 ± 0.1 µM
Ovine COX-1
  IC50: 7.3 ± 0.9 µM
